For one series, the system named is Kelly cells. Briefly: ATPlite cell growth inhibition assay, Kelly cell lines treated 72 hours. Type of series: cell-based. As to conditions: for Kelly NB cell growth inhibition: 72 hours, ATPlite, normalized to DMSO; for IC50: ND: not detected. How it is done:
Compounds CPD 1 to CPD 22 were tested via ATPlite™ assay (ATPlite™ 1000 assay kit, PerkinElmer®, USA) using standard protocol. […] The signal is normalized to DMSO treated cells.
Background: ATP-based viability assays read luminescence as a measure of living cells.

A further series deals with T1, HAT (EP300) domain (Homo sapiens, UniProt Q09472).
T1 sequence (Q09472 1287-1663 limits assumed): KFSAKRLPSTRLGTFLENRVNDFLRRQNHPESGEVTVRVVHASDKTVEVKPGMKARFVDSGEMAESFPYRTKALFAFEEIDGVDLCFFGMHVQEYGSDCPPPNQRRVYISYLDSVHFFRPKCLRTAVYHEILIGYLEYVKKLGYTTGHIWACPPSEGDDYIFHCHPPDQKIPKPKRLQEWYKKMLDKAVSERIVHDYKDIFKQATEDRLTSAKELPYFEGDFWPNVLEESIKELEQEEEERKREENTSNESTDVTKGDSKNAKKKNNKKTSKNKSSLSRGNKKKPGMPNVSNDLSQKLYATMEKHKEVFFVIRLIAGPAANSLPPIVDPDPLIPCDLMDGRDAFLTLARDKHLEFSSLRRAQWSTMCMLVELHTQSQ
Briefly: AlphaScreen assay, HAT (EP300) domain. The class given is binding. How it is done:
The AlphaScreen™ assay was performed in 384-well plate format using white AlphaPlate (PerkinElmer®, USA), and transfer of pre-diluted compound (100 nL) was performed using a Janus Workstation (PerkinElmer®, USA). All subsequent steps were carried out in assay buffer (50 mM 4-(2-hydroxyethyl)-1-piperazineethanesulfonic acid (HEPES), pH 7.5, 0.1% (wt/vol) bovine serum albumin (BSA) and 0.01% (vol/vol) Tween-20). In brief, 10 μL of assay buffer containing enzyme (2 nM Final) was pre-incubated for 15 min with dilutions of compound. The enzyme reaction was initiated by the addition of substrate (5 μL) consisting of acetyl Co-A 2-OG (5 μM Final).
FAS final concentration was 10 μM. Histone tail-GGK Biotin final concentration was 100 nM Final. The enzyme reaction was allowed to proceed for 30 minutes and was stopped by the addition of 5 μL of assay buffer containing ethylenediaminetetraacetic acid (EDTA) (40 mM) and NaCl (1200 mM). The final concentration of dimethyl sulfoxide (DMSO) was 1%. Streptavidin donor beads (0.08 mg/mL) and protein-A-conjugated acceptor beads (0.08 mg/mL) were preincubated for 1 h with antibody to methyl mark (300 ng/mL Final), and the presence of histone H3 product acetylation mark was detected using the preincubated AlphaScreen™ beads (5 μL). Detection was allowed to proceed for 2 hours at rt, and the assay plates were read on the Envision™ 2104 plate reader. Data were normalized to the (no-enzyme) control, and the IC50 values were determined via nonlinear regression curve fit using GraphPad Prism (FIG. 4E-FIG. 4H).
AlphaScreen™ assay was used to determine the binding of inventive degrader compound toward both CRBN and HAT domain. The experimental protocol is the same as in Example 26.

The target of the next series is cereblon (CRBN) (Homo sapiens, UniProt Q96SW2). Briefly: AlphaScreen assay, cereblon (CRBN). The class given is binding. From the text:
An AlphaLISA® assay for EP300 catalytic function (FIG. 3B) and an AlphaScreen™ assay for EP300 bromodomain and cereblon (CRBN) using biotinylated tagged small molecules as a probe for EP300 bromodomain and CRBN, respectively, were developed (FIG. 3C).
AlphaScreen™ assay was used to determine the binding of inventive degrader compound toward both CRBN and HAT domain.

The test system of another series is Kelly NB cells. Briefly: EP300/CBP inhibitors in Kelly NB cells (colony formation, CellTiter-Glo growth assays). The class given is cell-based. How it is done: The effects of several EP300/CBP inhibitors, C646, CBP30 and A485 were tested in Kelly NB cells. (FIG. 2B).
The conditions of series [1]: in mice; cited from earlier work.

We go through 9 compounds from patent US12428412B2 (DANA-FARBER CANCER INSTITUTE, INC., priority 2018, dated 2025).

Entries after “also recorded” stand apart in the source; their conditions may differ.

cereblon (CRBN), sequence (Q96SW2 whole entry): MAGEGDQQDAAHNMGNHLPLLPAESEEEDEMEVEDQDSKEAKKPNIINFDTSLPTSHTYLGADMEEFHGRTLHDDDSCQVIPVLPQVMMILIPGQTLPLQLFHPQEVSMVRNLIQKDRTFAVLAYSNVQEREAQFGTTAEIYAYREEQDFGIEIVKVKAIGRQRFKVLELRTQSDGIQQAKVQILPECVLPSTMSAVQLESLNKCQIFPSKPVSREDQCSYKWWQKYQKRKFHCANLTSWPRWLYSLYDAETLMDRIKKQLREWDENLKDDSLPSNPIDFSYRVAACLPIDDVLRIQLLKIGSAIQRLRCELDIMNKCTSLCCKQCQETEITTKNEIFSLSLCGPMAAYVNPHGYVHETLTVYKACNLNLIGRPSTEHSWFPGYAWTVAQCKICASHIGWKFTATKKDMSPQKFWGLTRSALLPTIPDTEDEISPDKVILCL

On to `CC(=O)Nc1ccc2c(c1)CC[C@@]21OC(=O)N(CC(=O)N(Cc2ccc(F)cc2)[C@H](C)CNC(=O)CCCCCCCCCCCNc2ccc3c(c2)C(=O)N(C2CCC(=O)NC2=O)C3=O)C1=O` (stereo partly drawn) [CPD 15, N—((R)-2-(2-((R)-5-acetamido-2′,4′-dioxo-2,3-dihydrospiro[indene-1,5′-oxazolidin]-3′-yl)-N-(4-fluorobenzyl)acetamido)propyl)-12-((2-(2,6-dioxopiperidin-3-yl)-1,3-dioxoisoindolin-5-yl)amino)dodecanamide], for which, in the series with Kelly cells, the “Kelly NB cell growth inhibition” value is reported as “Cell growth inhibition was observed” and the IC50 (commonly the midpoint of a concentration-inhibition curve) came out at 1.76 µM.

For `C[C@H](N(Cc1ccc(F)cc1)C(=O)CN1C(=O)O[C@@]2(CCc3cc(NC(=O)CCOCCOCCOCCOCCOCCOCCNc4cccc5c4C(=O)N(C4CCC(=O)NC4=O)C5=O)ccc32)C1=O)C(F)(F)F` (stereo partly drawn) [CPD 2, 1-((2-(2,6-dioxopiperidin-3-yl)-1,3-dioxoisoindolin-4-yl)amino)-N—((R)-3′-(2-((4-fluorobenzyl)((S)-1,1,1-trifluoropropan-2-yl)amino)-2-oxoethyl)-2′,4′-dioxo-2,3-dihydrospiro[indene-1,5′-oxazolidin]-5-yl)-3,6,9,12,15,18-hexaoxahenicosane-21-amide], in the series on Kelly cells, the “Kelly NB cell growth inhibition” value is “did not inhibit cellular growth” and the IC50 was determined as 3.42 µM. Moreover, the “binding to HAT (EP300) domain” value at HAT (EP300) domain is reported as “bind”. Further, the “binding to cereblon (CRBN)” value on cereblon (CRBN) was “bind”.

In the case of `C[C@H](N(Cc1ccc(F)cc1)C(=O)CN1C(=O)O[C@@]2(CCc3cc(NC(=O)CCCNC(=O)CCCCCCCCCCCNc4ccc5c(c4)C(=O)N(C4CCC(=O)NC4=O)C5=O)ccc32)C1=O)C(F)(F)F` (stereo partly shown), in the series on Kelly cells, the “Kelly NB cell growth inhibition” value is given as “outperformed positive control A485; also recorded: Cell growth inhibition was observed” and 0.31 µM corresponded to half-maximal inhibition (IC50).

On to `CNC(=O)Nc1ccc2c(c1)CC[C@@]21OC(=O)N(CC(=O)N(Cc2ccc(F)cc2)[C@@H](C)C(F)(F)F)C1=O` [A485, N-[(4-fluorophenyl)methyl]-2-{(1R)-5-[(methylcarbamoyl)amino]-2′,4′-dioxo-2,3-dihydro-3′H-spiro[indene-1,5′-[1,3]oxazolidin]-3′-yl}-N-[(2S)-1,1,1-trifluoropropan-2-yl]acetamide], for which, at HAT (EP300) domain, the “binding to HAT (EP300) domain” value is listed as “bind”. The “binding to cereblon (CRBN)” value at cereblon (CRBN) was “no binding was observed”. The apoptosis result in the series with Kelly NB cells (Kelly NB cells, increasing doses) is “induction of apoptosis”. Besides, the growth inhibition entry in the series on Kelly NB cells (Kelly NB cells, increasing doses, CellTiter-Glo) is “growth inhibition”. Besides, in the series on Kelly NB cells (at submicromolar levels), the “growth changes in cellular models of NB compared with C646 and CBP30” value was “superior to other known EP300/CBP inhibitors”. Moreover, the half life in series [1] was 42 min.

As to `O=C1CCC(N2C(=O)c3ccccc3C2=O)C(=O)N1` (stereo not shown) [thalidomide, reference compound], on cereblon (CRBN), the “binding to cereblon (CRBN)” value is given as “bind”.

Take `Nc1cccc2c1C(=O)N(C1CCC(=O)NC1=O)C2=O` (stereo not shown) [pomalidomide, reference compound]: the “binding to cereblon (CRBN)” value on cereblon (CRBN) was “bind”.

For `C[C@H](N(Cc1ccc(F)cc1)C(=O)CN1C(=O)O[C@@]2(CCc3cc(NC(=O)CCc4ccc(NC(=O)CCCCCCCCCCCNc5ccc6c(c5)C(=O)N(C5CCC(=O)NC5=O)C6=O)cc4)ccc32)C1=O)C(F)(F)F` (stereo partly drawn) [CPD 13, 12-((2-(2,6-dioxopiperidin-3-yl)-1,3-dioxoisoindolin-5-yl)amino)-N-(4-(3-(((R)-3′-(2-((4-fluorobenzyl)((S)-1,1,1-trifluoropropan-2-yl)amino)-2-oxoethyl)-2′,4′-dioxo-2,3-dihydrospiro[indene-1,5′-oxazolidin]-5-yl)amino)-3-oxopropyl)phenyl)dodecanamide], in the series with Kelly cells, the “Kelly NB cell growth inhibition” value is recorded as “Cell growth inhibition was observed” and the half-inhibitory concentration (IC50) amounted to 1.39 µM.

Turning to `CC(N(Cc1ccc(F)cc1)C(=O)CN1C(=O)O[C@@]2(CCc3cc(NC(=O)CCCNC(=O)CCCCCNc4ccc5c(c4)C(=O)N(C4CCC(=O)NC4=O)C5=O)ccc32)C1=O)C(F)(F)F` (stereo in doubt) [CPD 10, 6-((2-(2,6-dioxopiperidin-3-yl)-1,3-dioxoisoindolin-5-yl)amino)-N-(4-(((R)-3′-(2-((4-fluorobenzyl)((R)-1,1,1-trifluoropropan-2-yl)amino)-2-oxoethyl)-2′,4′-dioxo-2,3-dihydrospiro[indene-1,5′-oxazolidin]-5-yl)amino)-4-oxobutyl)hexanamide], in the series on Kelly cells, the “Kelly NB cell growth inhibition” value is given as “Cell growth inhibition was observed” and the IC50 worked out at 1.15 µM.

Regarding `CC(=O)Nc1ccc2c(c1)CC[C@@]21OC(=O)N(CC(=O)N(Cc2ccc(F)cc2)[C@@H](C)CNC(=O)CCCCCCCCCCCNc2ccc3c(c2)C(=O)N(C2CCC(=O)NC2=O)C3=O)C1=O` (stereo partly drawn) [CPD 16, N—((S)-2-(2-((R)-5-acetamido-2′,4′-dioxo-2,3-dihydrospiro[indene-1,5′-oxazolidin]-3′-yl)-N-(4-fluorobenzyl)acetamido)propyl)-12-((2-(2,6-dioxopiperidin-3-yl)-1,3-dioxoisoindolin-5-yl)amino)dodecanamide], in the series on Kelly cells, the “Kelly NB cell growth inhibition” value is listed as “outperformed positive control A485; also recorded: Cell growth inhibition was observed” and the IC50 is 0.27 µM.
